Test results reported in patent US7700584B2 (Hangzhou Minsheng Pharmaceuticals Co., Ltd., priority 2004, dated 2010).
Read-outs that look alike come from different tables or passages of the source.

Tests used:
[1] = test system: MCF-7 human mammary adenocarcinoma; assay: In vitro inhibition rate to tumor cells (MTT), MCF-7; format: cell-based; conditions: for inhibition rate, Results (%) MCF-7: 50 μg/ml; for inhibition at 50 µg/mL: Homo sapiens
[2] = biological target: T1, HIV-1 proteinase (HIV-1 PR) (Human immunodeficiency virus type 1 group M subtype B, UniProt P04585); assay: Screening for in vitro activity against HIV-1 proteinase; format: biochemical; conditions: for inhibition at 10 µg/mL / inhibition at 0.08 µg/mL / inhibition at 2 µg/mL / inhibition at 0.4 µg/mL: read-out: Inhibition rate; for inhibition at 50 µg/mL: read-out: Inhibition rate, 50 μg/ml
T1 construct: HIV-1 proteinase digests the fluorescent-labeled substrate; purchased
How it was run: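 Recombinant HIV-1 PR cleaves a fluorescent-labeled substrate in reaction buffer. Samples were dissolved in DMSO and serially diluted 5-fold in water (five dilutions), then added before the enzyme. Fluorescence of the product was read after incubation; indinavir was the positive control.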

293 cells = assay: Cell status of 293 cells treated with sample alone (herpes virus screening); conditions: 200 μg/ml, 24 hrs
Hepatitis B virus (HBV) = format: cell-based; conditions: 200 μg/ml; for (Value of the positive control - Measured Value) Value of the positive control × 100%: decrease of HBeAg relative to positive control; for OD450 of HBeAg: supernatant four days after infection, positive control 1.917, negative 0.057
HepG2 cells = assay: Cell status of HepG2 cells treated with sample (HBV screening); format: cell-based; conditions: 200 μg/ml, HepG2, four days after infection
Protocol: 1.5 Screening for the agents: The HepG2 cells were counted and 1.5×10^4 cells/well were seeded into a 96-well plate. After incubation overnight in an atmosphere of CO2 at 37° C., each of the experimental samples in a given concentration was added to the cells. After incubation at 37 °C for 24 hrs, the HepG2 treated with the samples were infected with vAcGFPHBVc of 100 MOI. A negative control and a positive control were also included. Four days after infection, the growth of the cells were observed, and the HBV e antigen in the supernatant was measured with the HBV e antigen diagnostic kit.

[3] = MCF7, 50 μg/ml, Table 2 (repeated screening), read-out: inhibition rate, Results (%) MCF-7
[4] = MCF7, 50 μg/ml, Table 1, read-out: inhibition rate, Results (%) MCF-7
[5] = IC50, five 5× serial dilutions from 50 μg/ml

Compound	inhibition rate, Results (%) MCF-7 ([1]; Table 3 (repeated screening))	inhibition at 50 µg/mL [1, 3]	Inhibition rate ([2]; 0.40 μg/ml)	inhibition at 10 µg/mL ([2]; 10 μg/ml)	Inhibition rate ([2]; 50 μg/ml)	Cytopathy and cell status, Sample (293 cells)	inhibition at 50 µg/mL [1, 4]	inhibition at 0.08 µg/mL ([2]; 0.08 μg/ml)	inhibition at 2 µg/mL ([2]; 2.0 μg/ml)	IC50 [2, 5]	inhibition at 50 µg/mL [2]	inhibition at 0.4 µg/mL ([2]; 0.40 μg/ml)	(Value of the positive control - Measured Value) Value of the positive control × 100% (Hepatitis B virus (HBV))	OD450 of HBeAg (Hepatitis B virus (HBV))	Cell status (HepG2 cells)	other results
CC(C)C1CC23OC1(O)C/C(=C\Nc1ccc(O)cc1)C2CCC3C (stereo not drawn) [Compound 5, Curcumol p-hydroxy aniline]	95.53%	91%	9.00	11.2%	1.01	Good	–	–	–	–	–	–	–	–	–	inhibition at 50 µg/mL ([1]; MCF7, read-out: inhibition rate, Results (%) MCF-7, 50 μg/ml, Table 1): 90.3%; Inhibition rate ([2]; 0.08 μg/ml): 4.38; Inhibition rate ([2]; 2.0 μg/ml): 10.30; IC50 ([2]; five 5× serial dilutions from 50 μg/ml, read-out: IC50): > 146 µM
CC(C)C1CC23OC1(O)CC(=CN1CCNCC1)C2CCC3C (stereo not drawn) [Compound 7, Curcumol piperazine]	–	85%	6.32	–	–	Good	88.3%	14.1%	4.31%	> 156 µM	1.43%	–	–	–	–	inhibition at 50 µg/mL ([1]; MCF7, 50 μg/ml, Table 3 (repeated screening), read-out: inhibition rate, Results (%) MCF-7): 84.1%; Inhibition rate ([2]; 10 μg/ml): 3.51
CC(C)C1CC23OC1(O)CC(=CBr)C2CCC3C (stereo not drawn) [Compound 17, Curcumol monobromide]	–	50.3%	–	6.15%	–	Good	53.9%	3.78%	-6%	> 159 µM	9.94%	10.7%	96.19%	0.073	Poor	–
C=C1CC2(OS(=O)(=O)O)OC3(CC2C(C)C)C(C)CCC13 (stereo not drawn) [Compound 20, Curcumol sulfonate]	14.23%	–	–	9.46%	12.68	Good	–	8.76%	10.6%	> 158 µM	–	7.44%	−14.8148%	2.201	Normal	inhibition rate, Results (%) MCF-7 ([1]; Table 1): 18.9%; inhibition rate, Results (%) MCF-7 ([1]; Table 2 (repeated screening)): 16.32%
